Patent publication US20130202659A1, “POLYMER-AGENT CONJUGATES, PARTICLES, COMPOSITIONS, AND RELATED METHODS OF USE” (CERULEAN PHARMA INC., priority 2012, published 2013)

Assays:
B 16.F10 cells = assay: CellTiter-Glo Luminescent Cell Viability Assay, cytotoxic effect of nanoparticles; type: cell-based, mouse; conditions: 24, 48 and 72 hours
Method: B 16.F10 cells, grown to 85-90% confluency in 150 cm^2 flasks (passage<30), were resuspended in media (MEM-alpha, 10% HI-FBS, lx antibiotic-antimycotic) and added to 96-well opaque-clear bottom plates at a concentration of 1500 cells/well in 200 μL/well. The cells were incubated at 37° C. with 5% CO2 for 24 hours. The following day, serial dilutions of 2× concentrated particles and 2× concentrated free drug were made in 12-well reservoirs with media to specified concentrations. The media in the plates was replaced with 100 μL of fresh media and 100 μL of the corresponding serially diluted drug. Three sets of plates were prepared with duplicate treatments. Following 24, 48 and 72 hours of incubation at 37° C. with 5% CO2, the media in the plates was replaced with 100 μL of fresh media and 100 μL of CTG solution, and then incubated for 5 minutes on a plate shaker at room temperature set to 450 rpm and allowed to rest for 15 minutes. Viable cells were measured by luminescence using a microtiter plate reader. The data was plotted as % viability vs. concentration and standardized to untreated cells.

murine melanoma tumor = assay: Efficacy and survival in aggressive murine melanoma model at MTD (Example 92); type: in vivo, mouse; conditions: dosed at respective MTD
Method: Thus, the sustained release properties of a particle according to exemplary particle 1 supports less frequent dosing of patients. Methods: Tumor-bearing mice were injected with a particle according to exemplary particle 1 or docetaxel at their respective MTD. See, for example, FIGS. 6a and 6b.

HCT-116 tumor = assay: In vivo efficacy, HCT-116 colon xenograft model (Example 44); set-up: species or system human (in CD-1 nude mice); conditions: 30 mg/kg IV weekly×2
Method: HCT-116 cells were grown in culture to confluency in McCoy's 5a medium containing 10% FBS and 1% penicillin/streptomycin and then resuspended in McCoy's 5a (passage 4). This suspension of HCT-116 cells (density=3.7×10^6 cells/mL) was implanted subcutaneously above the right hind leg of male CD-1 nude mice on day 1.

[1] = Tolerability in ADR-RES tumor-bearing mice (Example 59); type: in vivo, mouse
Method: The treatments were administered IV into the tail vein at a dose volume of 10 and 20 mL/kg for 30 and 60 mg/kg respectively, beginning on post-implantation day 47, when the mean tumor volume was ca. 150 mm^3. Body weight and tumor volume were measured for three times a week during the dosing period and twice a week thereafter. In addition, animals were also monitored for any morbidity and adverse effects for three times a week during the dosing period and twice a week thereafter.
Tumor volume was calculated with (width×width×length)/2 mm^3 formula. […] Tumor growth inhibition (TGI) is represented as % and calculated as (1−(treated tumor volume/control tumor volume))×100 when the control group mean tumor volume reached ≧1000 mm^3. Tumor growth delay (TGD) is calculated by subtracting the day when the vehicle treated group reached the maximum tumor size 1000 mm^3 from the day when the treatment group tumor size reached 1000 mm^3.

H1299 tumor = assay: Efficacy in non-small cell lung carcinoma model H1299 (Example 60); type: in vivo, nu/nu mice; conditions: large tumor group, 30 mg/kg
Method: H1299 cells were grown in culture to 85-90% confluency in RPMI medium supplemented with 10% fetal bovine serum (FBS), 1% glutamine and 1% penicillin/streptomycin. Cells were removed from the culture flask using 0.05% trypsin (passage=4), re-suspended in RPMI medium (density=50×10^6 cells/mL) and were implanted subcutaneously (5×10^6 cells in 100 μL RPMI medium/mouse) into the mammary fat pad area of male nu/nu mice on day 1.
(§1) The treatments were administered IV into the tail vein at a dose volume of 10 and 20 mL/kg for 30 and 60 mg/kg respectively, beginning on post-implantation day 30 when the mean tumor volume was ca. 170 mm^3 (small tumor group), and on day 37 when the mean tumor volume was ca. 440 mm^3 (large tumor group). Body weight and tumor volume were measured for three times a week during the dosing period and twice a week thereafter. In addition, animals were also monitored for any morbidity and adverse effects for three times a week during the dosing period and twice a week thereafter.
Tumor volume was calculated with (width×width×length)/2 mm^3 formula. Efficacy was determined by tumor growth inhibition (TGI), tumor growth delay (TGD) and survival. Tumor growth inhibition (TGI) is represented as % and calculated as (1−(treated tumor volume/control tumor volume))×100 when the control group mean tumor volume reached ≧1000 mm^3. […]

SK-OV-3 tumor = assay: In vivo efficacy, SK-OV-3 ovarian human xenograft model (Example 45); set-up: species or system human (in CD-1 nude mice)
Method: SK-OV-3 cells were grown in culture to confluency in RPMI medium containing 10% FBS and 1% penicillin/streptomycin and then resuspended in RPMI (passage 4) for implantation into mice. This suspension of SK-OV-3 cells (density=30×10^6 cells/mL) was implanted into the mammary gland of female CD-1 nude mice on Day 1. […]

[2] = Tolerability in mouse melanoma model B16.F10 (Example 61); type: in vivo; conditions: 15 mg/kg 1/wk×3
Method: The treatments were administered IV into the tail vein at a dose volume of 10 ml/kg, beginning on post-implantation day 5, when the mean tumor volume was ca. 60 mm^3. Animals were monitored for any morbidity and adverse effects three times a week. In addition, body weight and tumor volume were also measured three times a week.

B16.F10 tumor [3] = assay: Efficacy in B16.F10 murine melanoma model (Example 43); type: in vivo, mouse
Method: 7) PEGylated docetaxel-5050 PLGA-β-acetyl nanoparticles (mPEG(5k)-PLGA at 40 wt %) administered at a dose of 15 mg/kg. Refer to table for detailed description of formulations.
Tumor volume was calculated with the following equation: (width×width×length)/2 mm^3.

[4] = mouse, in vivo, 17 day post-implantation
Method: The stock solution was diluted further with PBS to 0.6, 1.5, 3, 4.5 and 6 mg/mL (for a corresponding dose of 6, 15, 30, 45 and 60 mg/kg) so that all the groups received the same amount of ethanol, polysorbate 80, water and PBS. […] 5) PEGylated O-acetyl-5050-PLGA nanoparticle vehicle at the highest concentration of 6 mg/mL.
The treatments were administered IV into the tail vein at a dose volume of 10 mL/kg, beginning on post-implantation Day 5, when the mean tumor volume was 55 mm^3. The treatments were administered 4 times, on Days 5, 8, 12 and 15 (biweekly×4 injections). On Day 17 post-tumor implantation, mice were euthanized by CO2 inhalation according to the procedure guideline. Blood was collected by cardiac puncture and put into ethylenediaminetetraacetic acid (EDTA) or serum separation blood collection tubes. Whole blood was analyzed on the day of collection for CBC analyses. After the blood clotted and was centrifuged, serum was frozen immediately on dry ice for serum chemistry analyses.
Tolerability was determined by changes in body weight, expressed as a percent of the initial body weight on post-implantation Day 5. […] Other indices of toxicity, complete blood count (CBC) and serum chemistry were determined from blood collected from animals that were euthanized on Day 17 by CO2 inhalation, according to the procedure guideline.

[5] = weekly schedule, 3 injections; cited from earlier work
[6] = Body weight changes in A2780 tumor-bearing mice (Example 42); type: in vivo, mouse; conditions: Day 36
Method: The stock solution was diluted further with PBS to 1.5 mg/mL (for a dose of 15 mg/kg at 10 mL/kg and 30 mg/kg at 20 mL/kg). This formulation was made within 30 minutes of administration to mice.
The treatments were administered 2 times, on Day 8 and Day 15 (weekly×2 injections) for n=8 mice per group. […] On Day 50, the study was ended for all remaining mice. When removed from the study, mice were euthanized by CO2 inhalation.

[7] = Tolerability in normal male C57BL/6 non-tumor-bearing mice (Example 47); type: in vivo, mouse
Method: Treatments were administered intravenously on a q7d×2 schedule, i.e., two treatments seven days apart (the first treatment was on Day one). The study ended on Day 14, six days after the 2nd treatment. Blood was collected for complete blood count (CBC) and serum chemistry. Leg muscles were collected so that nerve degeneration could be assessed from the sciatic nerve.

[8] = Tolerability in H1299 tumor-bearing mice (Example 60); type: in vivo, mouse
Method: as §1
Tumor volume was calculated with (width×width×length)/2 mm^3 formula. Efficacy was determined by tumor growth inhibition (TGI), tumor growth delay (TGD) and survival. Tumor growth inhibition (TGI) is represented as % and calculated as (1−(treated tumor volume/control tumor volume))×100 when the control group mean tumor volume reached ≧1000 mm^3. Tumor growth delay (TGD) is calculated by subtracting the day when the vehicle treated group reached the maximum tumor size 1000 mm^3 from the day when the treatment group tumor size reached 1000 mm^3.

MDA-MB-435 tumor = assay: MDA-MB-435 breast xenograft model, delayed treatment (Example 93); conditions: mouse, in vivo
Excerpt: See, for example, FIG. 7.

B16.F10 tumor [9] = assay: In vivo efficacy, B16.F10 mouse model of melanoma (Example 39)
Method: The treatments were administered on days 5, 8, and 12 (biweekly×3 injections) post tumor implantation. Health status of the animals was monitored and tumor size was measured three times a week. […] Tumors from each animal were dissected and tumor size was measured. Tumor volume was calculated using the formula: (width×width×length)/2 mm^3.

[10] = large tumor group, 30 mg/kg 1/wk×2
[11] = large tumor group, 60 mg/kg 1/wk×2
[12] = small tumor group, 30 mg/kg 1/wk×2
[13] = small tumor group, 60 mg/kg 1/wk×2

With doxorubicin 5050 PLGA amide the “growth inhibition of B 16.F10 cells” value (B 16.F10 cells) was “inhibited the growth of B 16.F10 cells in a dose and time dependent manner”.

For `OC[C@H]1O[C@@H]2O[C@H]3[C@H](O)[C@@H](O)[C@@H](O[C@H]4[C@H](O)[C@@H](O)[C@@H](O[C@H]5[C@H](O)[C@@H](O)[C@@H](O[C@H]6[C@H](O)[C@@H](O)[C@@H](O[C@H]7[C@H](O)[C@@H](O)[C@@H](O[C@H]8[C@H](O)[C@@H](O)[C@@H](O[C@H]1[C@H](O)[C@H]2O)O[C@@H]8CO)O[C@@H]7CO)O[C@@H]6CO)O[C@@H]5CO)O[C@@H]4CO)O[C@@H]3CO` [β-CD, β-cyclodextrin], the “solubility of the cyclodextrin in the formulation” value (40 mg/mL) was “Beta-CD is not soluble at this”.

With `CC(=O)O[C@@]12CO[C@@H]1C[C@H](O)[C@@]1(C)C(=O)[C@H](O)C3=C(C)[C@@H](OC(=O)[C@H](O)[C@@H](NC(=O)OC(C)(C)C)c4ccccc4)C[C@@](O)([C@@H](OC(=O)c4ccccc4)[C@H]21)C3(C)C` [Free docetaxel, docetaxel] the “tumor growth with every other week dosing” value (murine melanoma tumor) was “not sufficient to suppress tumor growth”, the “tumor growth inhibition (TGI)” value (HCT-116 tumor) was 88% and the TGD (HCT-116 tumor; end point 1000 mm^3) was 22 days. The “Maximum body weight loss” value ([1]; 30 mg/kg 1/biwk×3) was 9%, the hind limb paralysis ([1]; 30 mg/kg 1/biwk×3) was “did not cause any significant body weight loss (<10%) or hind limb paralysis” and the “Maximum body weight loss” value ([1]; 30 mg/kg 1/wk×2) was 6%. The hind limb paralysis ([1]; 30 mg/kg 1/wk×2) was “did not cause any significant body weight loss (<10%) or hind limb paralysis”, the “Maximum body weight loss” value ([1]; 60 mg/kg 1/biwk×3) was 21% and the hind limb paralysis ([1]; 60 mg/kg 1/biwk×3) was “severe hind limb paralysis”. For the same molecule, the “Maximum body weight loss” value ([1]; 60 mg/kg 1/wk×2) was 23%, the hind limb paralysis ([1]; 60 mg/kg 1/wk×2) was “hind limb paralysis after the 2nd injection followed by recovery” and the tumor shrinkage (H1299 tumor) was “no tumor shrinkage”. For the same molecule, the “tumor growth delay (TGD)” value (SK-OV-3 tumor; 15 mg/kg weekly×2) was 18 days, the “tumor growth delay (TGD)” value (SK-OV-3 tumor; 30 mg/kg weekly×2) was 42 days and the “Maximum body weight loss” value [2] was 2%. For the same molecule, the “tumor growth delay (TGD)” value (B16.F10 tumor [3]; q3dq4dx3, 15 mg/kg) was 12 days, the “tumor growth delay (TGD)” value (B16.F10 tumor [3]; q7dx3, 30 mg/kg) was 17 days and the “day tumor volume end point reached” value (B16.F10 tumor [3]; q14dx2, 60 mg/kg) was 29 days. The “tumor growth inhibition (TGI)” value (B16.F10 tumor [3]; q14dx2, 60 mg/kg) was 71%, the “dose up to which no serum chemistry parameter was affected” value [4] was 30 mg/kg and the “known maximum tolerated dose (MTD)” value [5] was 30 mg/kg. The “body weight, % of initial” value ([6]; 15 mg/kg) was 113±11%, the “body weight, % of initial” value ([6]; 30 mg/kg) was 105±9% and the Ataxia ([7]; 30 mg/kg q7d×2) was 0%. It also gave a Lymphocyte mean ([7]; 30 mg/kg q7d×2, Day 14) of 4350 cells/A, a Neutrophil mean ([7]; 30 mg/kg q7d×2, Day 14) of 556 cells/A and an Ataxia ([7]; 45 mg/kg q7d×2) of 20%. The Lymphocyte mean ([7]; 45 mg/kg q7d×2, Day 14) was 6780 cells/A, the Neutrophil mean ([7]; 45 mg/kg q7d×2, Day 14) was 752 cells/A and the Ataxia ([7]; 60 mg/kg q7d×2) was 100%. For the same molecule, the “weight lost after the second treatment, by the end of the study” value ([7]; 60 mg/kg q7d×2) was 19%, the Lymphocyte mean ([7]; 60 mg/kg q7d×2, Day 14) was 5590 cells/A and the Neutrophil mean ([7]; 60 mg/kg q7d×2, Day 14) was 470 cells/A. For the same molecule, the “effect on serum chemistry” value ([7]; doses up to 60 mg/kg) was “did not affect any serum chemistry parameter”, the “Maximum body weight loss” value [8, 10] was 19% and the hind limb paralysis [8, 10] was “did not cause any significant body weight loss or hind limb paralysis”. For the same molecule, the “Maximum body weight loss” value [8, 11] was “significant body weight loss”, the hind limb paralysis [8, 11] was “severe hind limb paralysis” and the “Maximum body weight loss” value [8, 12] was 18%. For the same molecule, the hind limb paralysis [8, 12] was “did not cause any significant body weight loss or hind limb paralysis”, the “Maximum body weight loss” value [8, 13] was “significant body weight loss” and the hind limb paralysis [8, 13] was “severe hind limb paralysis”. For the same molecule, the “effect on tumors allowed to grow to 500 mm^3 (delayed treatment)” value (MDA-MB-435 tumor) was “unable to suppress tumor growth”.

In the case of docetaxel-5050 PLGA-O-acetyl, the “growth inhibition of B 16.F10 cells” value (B 16.F10 cells) is reported as “inhibited the growth of B 16.F10 cells in a dose and time dependent manner”.

In the case of paclitaxel-5050 PLGA-O-acetyl, the “growth inhibition of B 16.F10 cells” value (B 16.F10 cells) is reported as “inhibited the growth of B 16.F10 cells in a dose and time dependent manner”.

For `OC[C@H]1O[C@@](CO)(O[C@H]2O[C@H](CO)[C@@H](O)[C@H](O)[C@H]2O)[C@@H](O)[C@@H]1O` [Sucrose, sucrose], the “Recon. Solution Appearance” value (nanoparticles A, sucrose cycle, lyoprotectant 100 mg/mL, polymer 31.25 mg/mL, 3.2:1) was “cloudy”.

For `CC(=O)O[C@H]1C(=O)[C@@]2(C)[C@H]([C@H](OC(=O)c3ccccc3)[C@]3(O)C[C@H](OC(=O)[C@H](O)[C@@H](NC(=O)c4ccccc4)c4ccccc4)C(C)=C1C3(C)C)[C@]1(OC(C)=O)CO[C@@H]1C[C@@H]2O` [Free paclitaxel, paclitaxel], the “Day-17 TGI” value (B16.F10 tumor [9]; 6 mg/kg IV days 5, 8, 12) was 57% and the “Day-17 TGI” value (B16.F10 tumor [9]; 15 mg/kg IV days 5, 8, 12) was 83%.

In the case of “bis(docetaxel) glutamate-5050 PLGA-O-acetyl”, the “growth inhibition of B 16.F10 cells” value (B 16.F10 cells) is reported as “inhibited the growth of B 16.F10 cells in a dose and time dependent manner”.
